Results reported in US20230265151A1, “GIP/GLP1 CO-AGONIST COMPOUNDS” (priority 2020, published 2023).
Like-named read-outs stand apart in the source and are kept apart here.

Tests used:
Format in all cases: cell-based
hGCGR = target: T1, hGCGR (Homo sapiens, UniProt P47871); assay: Functional cAMP formation (HTRF) in HEK-293 clonal cells expressing hGCGR, 0.1% bovine casein, without or with 1.0% human serum albumin
T1 construct: expressed in transfected cells
Outline: (§1)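 Cells were stimulated with peptide for 30 min at 37° C, then intracellular cAMP was measured by competitive HTRF (665/620 nm ratio) and converted to nM using a cAMP standard curve. Relative EC50 and Emax came from four-parameter logistic fits of percent maximal response against peptide concentration.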

hGIPR = target: T2, hGIPR (Homo sapiens, UniProt P48546); assay: Functional cAMP formation (HTRF) in HEK-293 clonal cells expressing hGIPR, 0.1% bovine casein, without or with 1.0% human serum albumin; settings: for EC50: geometric mean; for Emax: read-out: hGIPR Emax, % ± SEM
T2 construct: expressed in transfected cells
T2 sequence (P48546 22-466): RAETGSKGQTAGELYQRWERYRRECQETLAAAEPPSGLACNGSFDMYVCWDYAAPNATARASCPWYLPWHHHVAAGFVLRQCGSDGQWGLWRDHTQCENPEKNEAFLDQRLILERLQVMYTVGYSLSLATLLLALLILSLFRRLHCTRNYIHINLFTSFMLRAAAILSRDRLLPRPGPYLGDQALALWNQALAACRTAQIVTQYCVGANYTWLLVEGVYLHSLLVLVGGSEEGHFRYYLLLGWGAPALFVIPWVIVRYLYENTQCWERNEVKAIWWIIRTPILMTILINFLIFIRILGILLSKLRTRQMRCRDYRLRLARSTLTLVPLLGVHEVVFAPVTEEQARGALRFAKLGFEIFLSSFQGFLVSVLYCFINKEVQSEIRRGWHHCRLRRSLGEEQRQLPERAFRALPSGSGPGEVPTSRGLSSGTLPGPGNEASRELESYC
Outline: as §1

hGLP-1R = hGLP-1R (Homo sapiens, UniProt P43220); assay: Functional cAMP formation (HTRF) in HEK-293 clonal cells expressing hGLP-1R, 0.1% bovine casein, without or with 1.0% human serum albumin; set-up: expressed in transfected cells; settings: for Emax: read-out: hGLP-1R Emax, % ± SEM
Chain of hGLP-1R (P43220 24-463): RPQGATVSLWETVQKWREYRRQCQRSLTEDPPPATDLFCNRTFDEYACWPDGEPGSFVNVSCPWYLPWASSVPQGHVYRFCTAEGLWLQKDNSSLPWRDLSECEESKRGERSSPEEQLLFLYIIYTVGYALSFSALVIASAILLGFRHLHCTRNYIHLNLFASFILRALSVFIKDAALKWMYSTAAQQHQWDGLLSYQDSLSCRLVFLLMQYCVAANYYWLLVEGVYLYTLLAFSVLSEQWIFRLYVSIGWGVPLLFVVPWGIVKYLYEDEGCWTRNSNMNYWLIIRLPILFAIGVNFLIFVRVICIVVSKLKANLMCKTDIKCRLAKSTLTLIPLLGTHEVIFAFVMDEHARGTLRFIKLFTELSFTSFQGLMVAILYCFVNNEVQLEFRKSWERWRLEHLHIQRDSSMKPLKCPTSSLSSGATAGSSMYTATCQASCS
Outline: as §1

[1] = 0.1% bovine casein and 1.0% human serum albumin, 37° C., geometric mean, read-out: hGCGR EC50, nM (SEM, n)
[2] = cAMP, incubated at 37° C., 0.1% bovine casein (no human serum albumin), geometric mean, read-out: hGCGR EC50, nM (SEM, n)
[3] = HEK293, 0.1% bovine casein and 1.0% human serum albumin, 37° C., percent of maximal response to GIP(1-42)NH2
[4] = HEK293, percent of maximal response to GIP(1-42)NH2, 37° C., 0.1% bovine casein, arithmetic mean
[5] = cAMP, incubated at 37° C., 0.1% bovine casein (no human serum albumin), read-out: hGIPR EC50, nM (SEM, n)
[6] = 0.1% bovine casein and 1.0% human serum albumin, 37° C., geometric mean, read-out: hGLP-1R EC50, nM (SEM, n)

T1 sequence (P47871 26-477): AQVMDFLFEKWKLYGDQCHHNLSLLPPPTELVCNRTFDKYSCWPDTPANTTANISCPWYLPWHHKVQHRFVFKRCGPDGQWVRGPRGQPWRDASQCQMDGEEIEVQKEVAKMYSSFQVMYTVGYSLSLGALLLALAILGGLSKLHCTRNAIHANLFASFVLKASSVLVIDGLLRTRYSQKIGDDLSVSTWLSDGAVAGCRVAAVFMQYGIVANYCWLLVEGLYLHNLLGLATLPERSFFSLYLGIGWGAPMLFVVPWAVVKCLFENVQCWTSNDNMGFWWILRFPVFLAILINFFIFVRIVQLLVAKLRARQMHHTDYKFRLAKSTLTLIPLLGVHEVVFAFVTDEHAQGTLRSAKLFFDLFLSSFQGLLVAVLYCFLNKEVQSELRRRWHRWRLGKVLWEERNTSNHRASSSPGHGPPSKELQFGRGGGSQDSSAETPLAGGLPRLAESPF

What does the source list for `CCCCCCCCCCCC(=O)N[C@@H](CCC(=O)NCCOCCOCC(=O)NCCOCCOCC(=O)NCCCC[C@H](NC(=O)[C@H](CCCN)NC(=O)[C@H](CC(=O)O)NC(=O)[C@H](CC(C)C)NC(=O)[C@](C)(CC(C)C)NC(=O)[C@@H](NC(=O)[C@H](CO)NC(=O)[C@H](Cc1ccncc1)NC(=O)[C@H](CC(=O)O)NC(=O)[C@H](CO)NC(=O)[C@@H](NC(=O)[C@](C)(Cc1ccccc1F)NC(=O)[C@@H](NC(=O)CNC(=O)[C@H](CCC(=O)O)NC(=O)C(C)(C)NC(=O)[C@@H](N)Cc1ccc(O)cc1)[C@@H](C)O)[C@@H](C)O)[C@@H](C)CC)C(=O)N[C@@H](C)C(=O)N[C@@H](CCC(N)=O)C(=O)NC(C)(C)C(=O)N[C@@H](CCC(=O)O)C(=O)N[C@@H](Cc1ccccc1)C(=O)N[C@H](C(=O)N[C@@H](CCCCNC(=O)COCCOCCNC(=O)COCCOCCNC(=O)CC[C@H](NC(=O)CCCCCCCCCCC)C(=O)O)C(=O)N[C@@](C)(Cc1ccc(O)cc1)C(=O)N[C@@H](CC(C)C)C(=O)N[C@H](C(=O)N[C@@H](CCC(=O)O)C(=O)NCC(=O)NCC(=O)N1CCC[C@H]1C(=O)N[C@@H](CO)C(=O)N[C@@H](CO)C(=O)NCC(=O)N[C@@H](C)C(=O)N1CCC[C@H]1C(=O)N1CCC[C@H]1C(=O)N1CCC[C@H]1C(=O)N[C@@H](CO)C(N)=O)[C@@H](C)CC)[C@@H](C)CC)C(=O)O` [Example 138]?
EC50 (hGCGR; hGCGR EC50, nM (SEM, n), cAMP, incubated at 37° C., 0.1% bovine casein (no human serum albumin), geometric mean): > 9950 nM; EC50 (hGIPR; hGIPR EC50, nM (SEM, n), cAMP, incubated at 37° C., 0.1% bovine casein (no human serum albumin)): 0.0197 nM; EC50 (hGLP-1R; hGLP-1R EC50, nM (SEM, n), cAMP, incubated at 37° C., 0.1% bovine casein (no human serum albumin), geometric mean): 0.267 nM

Which EC50 (hGCGR; cAMP, 37° C., 0.1% bovine casein (no human serum albumin), geometric mean, read-out: hGCGR EC50, nM (SEM, n)) does the source give for `CC[C@H](C)[C@H](NC(=O)[C@H](CC(C)C)NC(=O)[C@](C)(Cc1ccc(O)cc1)NC(=O)[C@H](CCCCNC(=O)COCCOCCNC(=O)CCCCCCCNC(=O)CC[C@H](NC(=O)CCCCCCCCCCCCC(=O)O)C(=O)O)NC(=O)[C@@H](NC(=O)[C@H](Cc1ccccc1)NC(=O)[C@H](CCCN)NC(=O)C(C)(C)NC(=O)[C@H](CCC(N)=O)NC(=O)[C@H](C)NC(=O)[C@H](CCC(N)=O)NC(=O)[C@H](CCCN)NC(=O)[C@H](CC(=O)O)NC(=O)[C@H](CC(C)C)NC(=O)[C@](C)(CC(C)C)NC(=O)[C@@H](NC(=O)C(C)(C)NC(=O)[C@H](Cc1ccncc1)NC(=O)[C@H](CC(=O)O)NC(=O)[C@H](CO)NC(=O)[C@@H](NC(=O)[C@](C)(Cc1ccccc1F)NC(=O)[C@@H](NC(=O)CNC(=O)[C@H](CCC(=O)O)NC(=O)C(C)(C)NC(=O)[C@@H](N)Cc1ccc(O)cc1)[C@@H](C)O)[C@@H](C)O)[C@@H](C)CC)[C@@H](C)CC)C(=O)N[C@@H](CCCCNC(=O)COCCOCCNC(=O)CCCCCCCNC(=O)CC[C@H](NC(=O)CCCCCCCCCCCCC(=O)O)C(=O)O)C(=O)NCC(=O)NCC(=O)N1CCC[C@H]1C(=O)N[C@@H](CO)C(=O)N[C@@H](CO)C(=O)NCC(=O)N[C@@H](C)C(=O)N1CCC[C@H]1C(=O)N1CCC[C@H]1C(=O)N1CCC[C@H]1C(=O)N[C@@H](CO)C(N)=O` [Example 450] here?
The EC50 was greater than 9950 nM.

What about the EC50 (hGCGR; cAMP, 37° C., 0.1% bovine casein and 1.0% human serum albumin, geometric mean (SEM, n), read-out: hGCGR EC50, nM (SEM, n)) of the same molecule?
The EC50 was greater than 9950 nM.

What about the Emax (hGIPR; HEK293, cAMP, 37° C., 0.1% bovine casein and 1.0% human serum albumin, percent of maximal response to GIP(1-42)NH2) of the same molecule?
Its Emax is 91.4%.

And the EC50 (hGIPR; cAMP, 37° C., 0.1% bovine casein (no human serum albumin), read-out: hGIPR EC50, nM (SEM, n))?
Its EC50 is 0.0138 nM.

And the Emax (hGLP-1R; HEK293, cAMP, 37° C., 0.1% bovine casein, percent of maximal response to GLP-1(7-36)NH2, arithmetic mean)?
The Emax was 120%.

What about the EC50 (hGLP-1R; cAMP, 37° C., 0.1% bovine casein (no human serum albumin), geometric mean, read-out: hGLP-1R EC50, nM (SEM, n)) of the same molecule?
Its EC50 is 0.201 nM.

And the EC50 (hGLP-1R; cAMP, 37° C., 0.1% bovine casein and 1.0% human serum albumin, geometric mean (SEM, n), read-out: hGLP-1R EC50, nM (SEM, n))?
The EC50 was 32.3 nM.

What does the source list for `CC[C@H](C)[C@H](NC(=O)[C@H](CCCN)NC(=O)[C@H](CC(=O)O)NC(=O)[C@H](CC(C)C)NC(=O)[C@](C)(CC(C)C)NC(=O)[C@@H](NC(=O)[C@H](CO)NC(=O)[C@H](Cc1ccncc1)NC(=O)[C@H](CC(=O)O)NC(=O)[C@H](CO)NC(=O)[C@@H](NC(=O)[C@](C)(Cc1ccccc1F)NC(=O)[C@@H](NC(=O)CNC(=O)[C@H](CCC(=O)O)NC(=O)C(C)(C)NC(=O)[C@@H](N)Cc1ccc(O)cc1)[C@@H](C)O)[C@@H](C)O)[C@@H](C)CC)C(=O)N[C@@H](C)C(=O)N[C@@H](CCC(N)=O)C(=O)NC(C)(C)C(=O)N[C@@H](CCC(=O)O)C(=O)N[C@@H](Cc1ccccc1)C(=O)N[C@H](C(=O)N[C@@H](CCCCNC(=O)COCCOCCNC(=O)COCCOCCNC(=O)CCCCCCCCCCCCC(=O)O)C(=O)N[C@@](C)(Cc1ccc(O)cc1)C(=O)N[C@@H](CC(C)C)C(=O)N[C@H](C(=O)N[C@@H](CCCCNC(=O)COCCOCCNC(=O)COCCOCCNC(=O)CCCCCCCCCCCCC(=O)O)C(=O)NCC(=O)NCC(=O)N1CCC[C@H]1C(=O)N[C@@H](CO)C(=O)N[C@@H](CO)C(=O)NCC(=O)N[C@@H](C)C(=O)N1CCC[C@H]1C(=O)N1CCC[C@H]1C(=O)N1CCC[C@H]1C(=O)N[C@@H](CO)C(N)=O)[C@@H](C)CC)[C@@H](C)CC` [Example 192]?
EC50 (hGCGR; [1]): > 9950 nM; EC50 (hGCGR; [2]): > 9950 nM; Emax (hGIPR; [3]): 93.6 ± 3.98%; Emax (hGIPR; [4]): 96.5 ± 4.86%; EC50 (hGIPR; [5]): 0.0375 nM; EC50 (hGLP-1R; [6]): 11.2 nM; Emax (hGLP-1R; HEK293, 0.1% bovine casein and 1.0% human serum albumin, 37° C., percent of maximal response to GLP-1(7-36)NH2): 121 ± 2.56%; Emax (hGLP-1R; HEK293, percent of maximal response to GLP-1(7-36)NH2, 37° C., 0.1% bovine casein, arithmetic mean): 100 ± 2.34%; EC50 (hGLP-1R; cAMP, incubated at 37° C., 0.1% bovine casein (no human serum albumin), geometric mean, read-out: hGLP-1R EC50, nM (SEM, n)): 0.518 nM

What does the source list for `CC[C@H](C)[C@H](NC(=O)[C@H](CC(C)C)NC(=O)[C@](C)(Cc1ccc(O)cc1)NC(=O)[C@@H](CCC(=O)O)NC(=O)[C@@H](NC(=O)[C@H](Cc1ccccc1)NC(=O)[C@H](CCC(=O)O)NC(=O)C(C)(C)NC(=O)[C@H](CCC(N)=O)NC(=O)[C@H](C)NC(=O)[C@H](CCCCNC(=O)COCCOCCNC(=O)CC[C@H](NC(=O)CCCc1ccc(C(C)(C)C)cc1)C(=O)O)NC(=O)[C@H](CCCN)NC(=O)[C@H](CC(=O)O)NC(=O)[C@H](CC(C)C)NC(=O)[C@](C)(CC(C)C)NC(=O)[C@@H](NC(=O)[C@H](CO)NC(=O)[C@H](Cc1ccncc1)NC(=O)[C@H](CC(=O)O)NC(=O)[C@H](CO)NC(=O)[C@@H](NC(=O)[C@](C)(Cc1ccccc1F)NC(=O)[C@@H](NC(=O)CNC(=O)[C@H](CCC(=O)O)NC(=O)C(C)(C)NC(=O)[C@@H](N)Cc1ccc(O)cc1)[C@@H](C)O)[C@@H](C)O)[C@@H](C)CC)[C@@H](C)CC)C(=O)N[C@@H](CCCCNC(=O)COCCOCCNC(=O)CC[C@H](NC(=O)CCCc1ccc(C(C)(C)C)cc1)C(=O)O)C(=O)NCC(=O)NCC(=O)N1CCC[C@H]1C(=O)N[C@@H](CO)C(=O)N[C@@H](CO)C(=O)NCC(=O)N[C@@H](C)C(=O)N1CCC[C@H]1C(=O)N1CCC[C@H]1C(=O)N1CCC[C@H]1C(=O)N[C@@H](CO)C(N)=O` [Example 208]?
EC50 (hGCGR; [1]): > 9950 nM; EC50 (hGCGR; [2]): > 9950 nM; EC50 (hGIPR; 0.1% bovine casein and 1.0% human serum albumin, 37° C., read-out: hGIPR EC50, nM (SEM, n)): 0.126 nM; Emax (hGIPR; [3]): 64.1%; Emax (hGIPR; [4]): 94.9%; EC50 (hGIPR; [5]): 0.018 nM; EC50 (hGLP-1R; [6]): 1.58 nM
